Reference: patent US8865124B2, “Probe reagent for measuring oxidative stress” (Japan Science and Technology Agency, priority 2008, dated 2014)
Peptide text beside a SMILES is read from it. * marks the point of attachment. Cbz = O=C(OCc1ccccc1)*

Tests used:
[1] = system: HeLa cells expressing the probe reagent mKO2-Nrf2—100-T2A-Keap1; assay: Evaluation of a probe reagent by imaging of a cell (mKO2 fluorescence, time-lapse microscope); type: cell-based, human
Protocol: The prepared cDNA was transfected into HeLa cells that were cultured on a glass bottom dish by using FuGENE HD (manufactured by Roche Applied Science). The medium was replaced by the fresh medium 12 hours after the transfection. […] This microscope was equipped with a cooled CCD camera so that fluorescent images of a cell were able to be captured over time.
In order to verify that the constructed probe reagent responded correctly to oxidative stress as intended, diethylmaleate (DEM), which is an oxidative stress inducer, was added at a concentration of 100 μM, and the fluorescent intensity of mKO2 (ex; BP520-540HQ, em; BP555-600HQ) was measured. […] When ethanol, a solvent, was added at 0.1% as a control, the fluorescent intensity of mKO2 was not increased.
In order to verify that this probe reagent was degraded by a proteasome in a cell under conditions without being exposed to oxidative stress, an experiment using a proteasome inhibitor, MG132, was carried out. […] In contrast, after dimethylsulfoxide (DMSO), a solvent, was added at 0.1% as a control, the fluorescent intensity of mKO2 was not increased (FIG. 5).

[2] = system: mKO2-Nrf2 fusion molecule in HeLa cells; assay: Evaluation of a probe reagent by Western blotting using an anti-Nrf2 antibody; type: cell-based, human; conditions: MG132 10 μM versus 0.1% DMSO; FIG. 6
Protocol: First, to confirm that this probe reagent was separated into an mKO2-Nrf2 fusion molecule and Keap1 by the T2A peptide in a cell, the following experiments were performed. The cDNA, which was prepared using FuGENE® HD (Roche Applied Science Inc.), was transfected into HeLa cells cultured on a 35-mm dish. The medium was replaced by the fresh medium 12 hours after the transfection. After the 12 hours, DEM was added at a concentration of 100 μM, and ethanol was added at 0.1% as a control. The cells were cultured for further 8 hours. After that, Western blotting was conducted by using an anti-Nrf2 antibody (Santa Cruz Inc.). Both in the case of adding DEM and the case of adding ethanol, the band of the mKO2-Nrf2 fusion molecule was detected, but the band of the probe reagent comprising linked Keap1 was hardly observed.
Next, the fact that this probe reagent was degraded by a proteasome in a cell was confirmed by performing Western blotting. A proteasome inhibitor, MG132, was added at a concentration of 10 μM to HeLa cells that had been cultured in a similar manner. DMSO was added at 0.1% to control cells as well.

`CCOC(=O)/C=C\C(=O)OCC` [DEM, diethylmaleate] was tested, and the “increase in the fluorescent intensity of mKO2” value ([1]; DEM added at 100 μM, HeLa cells transfected with probe cDNA, control 0.1% ethanol gave no increase, FIG. 3) was “more than 10 times”.
`CC(C)C[C@@H](C=O)NC(=O)[C@H](CC(C)C)NC(=O)[C@H](CC(C)C)NC(=O)OCc1ccccc1` [MG132] (Cbz-Leu-Leu-Leu-aldehyde) was tested, and the “fluorescent intensity of mKO2” value ([1]; MG132 added at 10 μM, control 0.1% DMSO gave no increase, FIG. 5) was “increase in the fluorescent intensity of mKO2 was observed” and the “band of the mKO2-Nrf2 fusion molecule (amount of probe reagent)” value [2] was “strong band was detected compared to the case of adding DMSO”.
For “probe reagent: fusion protein: fluorescent protein mKO2, Nrf2 amino acids 1 to 100, self-cleaved peptide T2A and Keap1; encoded by SEQ ID NO: 7”, the “fluorescence of cells expressing the probe reagent before the experiment” value ([1]; no oxidative stress loaded, 24 hours after medium change) was “only fluorescence at the background light level was detected”.
